ChEMBL document CHEMBL4842359, “1,3-Diarylpyrazolyl-acylsulfonamides as Potent Anti-tuberculosis Agents Targeting Cell Wall Biosynthesis in Mycobacterium tuberculosis” (J Med Chem, 2021)
Converted amounts (≈) assume the structure as drawn.

Assays:
Assay in all cases: microbe, parasite or virus in culture
[1] = tested on: Mycobacterium tuberculosis; conditions: 336 h
[2] = tested on: Mycobacterium tuberculosis; conditions: MD55
[3] = tested on: Mycobacterium tuberculosis; conditions: MD96
[4] = tested on: Mycobacterium tuberculosis; conditions: R88
[5] = tested on: Mycobacterium tuberculosis; conditions: R296
[6] = tested on: Mycobacterium tuberculosis; conditions: R3027

## CS(=O)(=O)NC(=O)NCc1cn(-c2ccc(Cl)cc2)nc1-c1ccncc1
[1]
  MIC: < 0.12 µM

## CS(=O)(=O)NC(=O)CCc1cn(-c2ccc(Br)cc2)nc1-c1ccncc1
[2]
  MIC: 60 µM (≈ 27 µg/mL)
[3]
  MIC: ≤ 30 µM
[4]
  MIC: 30 µM (≈ 13.5 µg/mL)
[5]
  MIC: 60 µM (≈ 27 µg/mL)
[6]
  MIC: 60 µM (≈ 27 µg/mL)

## CS(=O)(=O)NC(=O)NCc1cc(-c2ccc(Br)cc2)oc1-c1ccncc1
[1]
  MIC: < 0.13 µM

## CS(=O)(=O)NC(=O)CCc1cn(-c2ccc(Cl)cc2)nc1-c1ccc(Cl)cc1
[1]
  MIC: 0.24 µM (≈ 0.105 µg/mL)

## CS(=O)(=O)NC(=O)CCc1cn(-c2ccc(Br)cc2)nc1-c1ccc(Cl)cc1
[1]
  MIC: 0.4 µM (≈ 0.193 µg/mL)

## NNC(=O)c1ccncc1 [ISONIAZID]
[1]
  MIC: 31.2 µM (≈ 4.28 µg/mL)

## CO[C@H]1/C=C/O[C@@]2(C)Oc3c(C)c(O)c4c(O)c(c(/C=N/N5CCN(C)CC5)c(O)c4c3C2=O)NC(=O)/C(C)=C\C=C\[C@H](C)[C@H](O)[C@@H](C)[C@@H](O)[C@@H](C)[C@H](OC(C)=O)[C@@H]1C [RIFAMPIN]
[1]
  MIC: 0.001 µM (≈ 0.000823 µg/mL)
